{
  "source": "patent US9949475B2",
  "about": "“Composition comprising active ingredient, oil and ionic liquid” (priority 2011, dated 2018)",
  "test": "Solubility of agrochemical active ingredient in oil comprising ionic liquid",
  "type": "physicochemical",
  "settings": "for solubility: 21 °C, thermodynamic from solid",
  "source_text": "Alternatively, the oil, which comprised the ionic liquid, was saturated with the active ingredient and the soluble fraction of active ingredient was quantified by means of HPLC. In the first line of the tables, in each case the weight ratios of oil to IL are given.",
  "note": "Like-named read-outs stand apart in the source and are kept apart here.",
  "data": [
    {"smiles": "Cn1cc(C(=O)Nc2ccccc2-c2cc(F)c(F)c(F)c2)c(C(F)F)n1", "note": "[fluxapyroxad, 3-(difluoromethyl)-1-methyl-N-(3′,4′,5′-trifluorobiphenyl-2-yl)pyrazole-4-carboxamide]", "values": [
      {"measurement": "Solubility of fluxapyroxad with Agnique AMD 12 ® (N,N-dimethyldodecanamide, lauryl N,N-dimethylamide) as oil", "setting": "21° C., Oil/IL 20/80 weight ratio, IL N-butyl-N′-methylimidazolium acetate", "result": 43.1, "unit": "mg/mL"},
      {"measurement": "Solubility of fluxapyroxad with Agnique AMD 12 ® (N,N-dimethyldodecanamide, lauryl N,N-dimethylamide) as oil", "setting": "21° C., Oil/IL 20/80 weight ratio, IL N-ethyl-N′-methylimidazolium acetate", "result": 39.5, "unit": "mg/mL"},
      {"measurement": "Solubility of fluxapyroxad with Agnique AMD 12 ® (N,N-dimethyldodecanamide, lauryl N,N-dimethylamide) as oil", "setting": "21° C., Oil/IL 20/80 weight ratio, IL N-ethyl-N′-methylimidazolium isononanoate", "result": 38.4, "unit": "mg/mL"},
      {"measurement": "Solubility of fluxapyroxad with Agnique AMD 12 ® (N,N-dimethyldodecanamide, lauryl N,N-dimethylamide) as oil", "setting": "21° C., Oil/IL 20/80 weight ratio, IL Tetrabutylammonium [2-(2-methoxyethoxy)ethoxy]acetate", "result": 37.5, "unit": "mg/mL"},
      {"measurement": "Solubility of fluxapyroxad with Agnique AMD 12 ® (N,N-dimethyldodecanamide, lauryl N,N-dimethylamide) as oil", "setting": "21° C., Oil/IL 60/40 weight ratio, IL N-butyl-N′-methylimidazolium acetate", "result": 55.9, "unit": "mg/mL"},
      {"measurement": "Solubility of fluxapyroxad with Agnique AMD 12 ® (N,N-dimethyldodecanamide, lauryl N,N-dimethylamide) as oil", "setting": "21° C., Oil/IL 60/40 weight ratio, IL N-ethyl-N′-methylimidazolium acetate", "result": 40.4, "unit": "mg/mL"},
      {"measurement": "Solubility of fluxapyroxad with Agnique AMD 12 ® (N,N-dimethyldodecanamide, lauryl N,N-dimethylamide) as oil", "setting": "21° C., Oil/IL 60/40 weight ratio, IL N-ethyl-N′-methylimidazolium isononanoate", "result": 48.1, "unit": "mg/mL"},
      {"measurement": "Solubility of fluxapyroxad with Agnique AMD 12 ® (N,N-dimethyldodecanamide, lauryl N,N-dimethylamide) as oil", "setting": "21° C., Oil/IL 60/40 weight ratio, IL Tetrabutylammonium [2-(2-methoxyethoxy)ethoxy]acetate", "result": 33.1, "unit": "mg/mL"},
      {"measurement": "Solubility of fluxapyroxad with Agnique AMD 12 ® (N,N-dimethyldodecanamide, lauryl N,N-dimethylamide) as oil", "setting": "21° C., Oil/IL 90/10 weight ratio, IL N-ethyl-N′-methylimidazolium acetate", "result": 38.2, "unit": "mg/mL"},
      {"measurement": "Solubility of fluxapyroxad with Agnique AMD 12 ® (N,N-dimethyldodecanamide, lauryl N,N-dimethylamide) as oil", "setting": "21° C., Oil/IL 90/10 weight ratio, IL Tetrabutylammonium [2-(2-methoxyethoxy)ethoxy]acetate", "result": 29.7, "unit": "mg/mL"},
      {"measurement": "solubility", "setting": "oil or lipid, 21° C., Oil/IL 20/80 weight ratio, IL N-ethyl-N′-ethylimidazolium propionate, read-out: Solubility of fluxapyroxad with Solvesso ® 200 ND as oil", "result": 39.4, "unit": "mg/mL"},
      {"measurement": "solubility", "setting": "oil or lipid, 21° C., Oil/IL 20/80 weight ratio, IL N-ethyl-N′-methylimidazolium isononanoate, read-out: Solubility of fluxapyroxad with Solvesso ® 200 ND as oil", "result": 28.6, "unit": "mg/mL"},
      {"measurement": "solubility", "setting": "oil or lipid, 21° C., Oil/IL 60/40 weight ratio, IL N-ethyl-N′-ethylimidazolium propionate, read-out: Solubility of fluxapyroxad with Solvesso ® 200 ND as oil", "result": 50.5, "unit": "mg/mL"},
      {"measurement": "solubility", "setting": "oil or lipid, 21° C., Oil/IL 60/40 weight ratio, IL N-ethyl-N′-methylimidazolium isononanoate, read-out: Solubility of fluxapyroxad with Solvesso ® 200 ND as oil", "result": 42.9, "unit": "mg/mL"},
      {"measurement": "solubility", "setting": "oil or lipid, 21° C., Oil/IL 90/10 weight ratio, IL N-ethyl-N′-ethylimidazolium propionate, read-out: Solubility of fluxapyroxad with Solvesso ® 200 ND as oil", "result": 21.3, "unit": "mg/mL"},
      {"measurement": "solubility", "setting": "oil or lipid, 21° C., Oil/IL 90/10 weight ratio, IL N-ethyl-N′-methylimidazolium isononanoate, read-out: Solubility of fluxapyroxad with Solvesso ® 200 ND as oil", "result": 15.3, "unit": "mg/mL"},
      {"measurement": "solubility", "setting": "oil or lipid, 21° C., Oil/IL 90/10 weight ratio, IL Tetrabutylammonium [2-(2-methoxyethoxy)ethoxy]acetate, read-out: Solubility of fluxapyroxad with Solvesso ® 200 ND as oil", "result": 18.4, "unit": "mg/mL"},
      {"measurement": "solubility", "setting": "oil or lipid, Solubility of fluxapyroxad with Agnique AMD 12 ® (N,N-dimethyldodecanamide, lauryl N,N-dimethylamide) as oil", "result": 25.9, "unit": "mg/mL"},
      {"measurement": "solubility", "setting": "organic solvent or mixture, 21° C., 100 IL (no oil), IL N-ethyl-N′-methylimidazolium isononanoate, read-out: Solubility of fluxapyroxad with Cetiol ® B as oil", "result": 9.5, "unit": "mg/mL"},
      {"measurement": "solubility", "setting": "organic solvent or mixture, 21° C., 100 IL (no oil), IL N-ethyl-N′-methylimidazolium isononanoate, read-out: Solubility of fluxapyroxad with Solvesso ® 200 ND as oil", "result": 9.5, "unit": "mg/mL"},
      {"measurement": "solubility", "setting": "organic solvent or mixture, 21° C., 100 IL (no oil), IL Tetrabutylammonium [2-(2-methoxyethoxy)ethoxy]acetate, read-out: Solubility of fluxapyroxad with Solvesso ® 200 ND as oil", "result": 9.5, "unit": "mg/mL"},
      {"measurement": "solubility", "setting": "organic solvent or mixture, Solubility of fluxapyroxad with Agnique AMD 12 ® (N,N-dimethyldodecanamide, lauryl N,N-dimethylamide) as oil", "result": 5, "unit": "mg/mL"},
      {"measurement": "solubility", "setting": "organic solvent or mixture, Solubility of fluxapyroxad with Cetiol ® B as oil", "result": 5, "unit": "mg/mL"},
      {"measurement": "solubility", "setting": "organic solvent or mixture, Solubility of fluxapyroxad with Solvesso ® 200 ND as oil", "result": 5, "unit": "mg/mL"},
      {"measurement": "solubility", "setting": "Cetiol B / N-ethyl-N′-methylimidazolium isononanoate mixture, oil or lipid, 21° C., Oil/IL 20/80 weight ratio, IL N-ethyl-N′-methylimidazolium isononanoate, read-out: Solubility of fluxapyroxad with Cetiol ® B as oil", "result": 48.7, "unit": "mg/mL"},
      {"measurement": "solubility", "setting": "Cetiol B / N-ethyl-N′-methylimidazolium isononanoate mixture, oil or lipid, 21° C., Oil/IL 60/40 weight ratio, IL N-ethyl-N′-methylimidazolium isononanoate, read-out: Solubility of fluxapyroxad with Cetiol ® B as oil", "result": 46.7, "unit": "mg/mL"},
      {"measurement": "solubility", "setting": "Cetiol B / N-ethyl-N′-methylimidazolium isononanoate mixture, oil or lipid, 21° C., Oil/IL 90/10 weight ratio, IL N-ethyl-N′-methylimidazolium isononanoate, read-out: Solubility of fluxapyroxad with Cetiol ® B as oil", "result": 20.7, "unit": "mg/mL"},
      {"measurement": "solubility", "setting": "Cetiol B / cholinium octanoate mixture, oil or lipid, 21° C., Oil/IL 20/80 weight ratio, IL Cholinium octanoate, read-out: Solubility of fluxapyroxad with Cetiol ® B as oil", "result": 34.2, "unit": "mg/mL"},
      {"measurement": "solubility", "setting": "Cetiol B oil comprising ionic liquid, oil or lipid, 21° C., Oil/IL 20/80 weight ratio, IL N-butyl-N′-methylimidazolium acetate, read-out: Solubility of fluxapyroxad with Cetiol ® B as oil", "result": 54.9, "unit": "mg/mL"},
      {"measurement": "solubility", "setting": "Cetiol B oil comprising ionic liquid, oil or lipid, 21° C., Oil/IL 20/80 weight ratio, IL N-butyl-N′-methylimidazolium dimethylphosphate, read-out: Solubility of fluxapyroxad with Cetiol ® B as oil", "result": 44.1, "unit": "mg/mL"},
      {"measurement": "solubility", "setting": "Cetiol B oil comprising ionic liquid, oil or lipid, 21° C., Oil/IL 20/80 weight ratio, IL N-ethyl-N′-ethylimidazolium propionate, read-out: Solubility of fluxapyroxad with Cetiol ® B as oil", "result": 60.2, "unit": "mg/mL"},
      {"measurement": "solubility", "setting": "Cetiol B oil comprising ionic liquid, oil or lipid, 21° C., Oil/IL 20/80 weight ratio, IL N-ethyl-N′-methylimidazolium acetate, read-out: Solubility of fluxapyroxad with Cetiol ® B as oil", "result": 56.2, "unit": "mg/mL"},
      {"measurement": "solubility", "setting": "Cetiol B oil comprising ionic liquid, oil or lipid, 21° C., Oil/IL 20/80 weight ratio, IL N-ethyl-N′-methylimidazolium dibutylphosphate, read-out: Solubility of fluxapyroxad with Cetiol ® B as oil", "result": 16.8, "unit": "mg/mL"},
      {"measurement": "solubility", "setting": "Cetiol B oil comprising ionic liquid, oil or lipid, 21° C., Oil/IL 20/80 weight ratio, IL N-ethyl-N′-methylimidazolium heptanoate, read-out: Solubility of fluxapyroxad with Cetiol ® B as oil", "result": 28.4, "unit": "mg/mL"},
      {"measurement": "solubility", "setting": "Cetiol B oil comprising ionic liquid, oil or lipid, 21° C., Oil/IL 20/80 weight ratio, IL N-ethyl-N′-methylimidazolium octanoate, read-out: Solubility of fluxapyroxad with Cetiol ® B as oil", "result": 25.7, "unit": "mg/mL"},
      {"measurement": "solubility", "setting": "Cetiol B oil comprising ionic liquid, oil or lipid, 21° C., Oil/IL 20/80 weight ratio, IL N-propyl-N′-propylimidazolium acetate, read-out: Solubility of fluxapyroxad with Cetiol ® B as oil", "result": 59.2, "unit": "mg/mL"},
      {"measurement": "solubility", "setting": "Cetiol B oil comprising ionic liquid, oil or lipid, 21° C., Oil/IL 20/80 weight ratio, IL Tetrabutylammonium [2-(2-methoxyethoxy)ethoxy]acetate, read-out: Solubility of fluxapyroxad with Cetiol ® B as oil", "result": 38.3, "unit": "mg/mL"},
      {"measurement": "solubility", "setting": "Cetiol B oil comprising ionic liquid, oil or lipid, 21° C., Oil/IL 60/40 weight ratio, IL Cholinium octanoate, read-out: Solubility of fluxapyroxad with Cetiol ® B as oil", "result": 33.6, "unit": "mg/mL"},
      {"measurement": "solubility", "setting": "Cetiol B oil comprising ionic liquid, oil or lipid, 21° C., Oil/IL 60/40 weight ratio, IL N-butyl-N′-methylimidazolium acetate, read-out: Solubility of fluxapyroxad with Cetiol ® B as oil", "result": 50.6, "unit": "mg/mL"}
    ]}
  ]
}
